# What was measured:
# Type in all cases: biochemical
# PpPAT1 [1] = molecular target: T1, PpPAT1 (Physcomitrium patens, UniProt A9T6I7); assay: EnzChek pyrophosphate assay (PNP-coupled, […] nm)
# T1 construct: gene LOC112294424; codon-optimized gene in pET28a, His-tagged, E. coli BL21 (DE3), Ni-NTA
# SmPAT1 [2] = molecular target: T2, SmPAT1 (Selaginella moellendorffii, UniProt Z9CFY1Y489); assay: EnzChek pyrophosphate assay (PNP-coupled, […] nm)
# T2 construct: gene PAT1; codon-optimized gene in pET28a, His-tagged, E. coli BL21 (DE3), Ni-NTA
# PpPAT1 [3] = molecular target: T1, PpPAT1; assay: coupled pyrophosphate release to NADH oxidation, […] nm; substrate inhibition fit; settings: 1 mM PR-PPi, 45 mM imidazole HCl pH 7.4, 30 °C
# PvPAT1 [4] = molecular target: T3, PvPAT1 (Pistacia vera, UniProt Z9K6G7Q8L5); assay: coupled pyrophosphate release to NADH oxidation, […] nm; Michaelis-Menten fit; settings: 1 mM PR-PPi, 45 mM imidazole HCl pH 7.4, 30 °C
# T3 construct: codon-optimized gene in pET28a, His-tagged, E. coli BL21 (DE3), Ni-NTA
# T3 sequence (Z9K6G7Q8L5 1-311): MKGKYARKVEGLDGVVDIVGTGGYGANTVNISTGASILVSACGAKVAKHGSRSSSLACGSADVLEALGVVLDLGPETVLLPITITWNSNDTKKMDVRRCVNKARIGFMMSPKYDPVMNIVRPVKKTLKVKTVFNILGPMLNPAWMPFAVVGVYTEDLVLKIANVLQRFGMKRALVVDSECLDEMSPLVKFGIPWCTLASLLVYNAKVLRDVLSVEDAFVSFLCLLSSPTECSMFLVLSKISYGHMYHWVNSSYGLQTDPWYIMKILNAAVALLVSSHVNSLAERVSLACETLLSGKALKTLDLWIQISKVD
# CsPAT1 = molecular target: T4, CsPAT1 (Citrus sinensis, UniProt A0ACB8LSF1); assay: coupled pyrophosphate release to NADH oxidation, […] nm; substrate inhibition fit; settings: 1 mM PR-PPi, 45 mM imidazole HCl pH 7.4, 30 °C
# T4 construct: gene KPL71_006645; codon-optimized gene in pET28a, His-tagged, E. coli BL21 (DE3), Ni-NTA
# JrPAT1 = molecular target: T5, JrPAT1 (Juglans regia, UniProt A0A6P9ES87); assay: as above; settings: 1 mM PR-PPi, 45 mM imidazole HCl pH 7.4, 30 °C
# T5 construct: gene LOC109021987; codon-optimized gene in pET28a, His-tagged, E. coli BL21 (DE3), Ni-NTA
# SmPAT1 [5] = molecular target: T2, SmPAT1; assay: as above; settings: 1 mM PR-PPi, 45 mM imidazole HCl pH 7.4, 30 °C
# PvPAT1 [6] = molecular target: T3, PvPAT1; assay: as above; settings: 1 mM PR-PPi, 45 mM imidazole HCl pH 7.4, 30 °C
# AtPAT1 = molecular target: T6, AtPAT1 (Arabidopsis thaliana, UniProt Q02166); assay: as above; settings: 1 mM PR-PPi, 45 mM imidazole HCl pH 7.4, 30 °C
# T6 construct: gene PAT1; codon-optimized gene in pET28a, His-tagged, E. coli BL21 (DE3), Ni-NTA
smiles,measurement,setting,value
N[C@@H](Cc1ccc(O)cc1)C(=O)O [Tyr],IC50,PpPAT1 [1],1.18 mM
N[C@@H](Cc1ccccc1)C(=O)O [Phe],IC50,SmPAT1 [2],1.98 mM
Nc1ccccc1C(=O)O [anthranilate],Ki,PpPAT1 [3],> 5 mM
same,Km,PvPAT1 [4]; anthranilate 0-0.75 mM,32.1 ± 4.7 µM
same,Ki,CsPAT1,4.1 ± 0.6 mM
same,Ki,JrPAT1,> 5 mM
same,Ki,SmPAT1 [5],3.6 ± 0.8 mM
same,Ki,PvPAT1 [6],1.8 ± 0.4 mM
same,Ki,AtPAT1,4.3 ± 0.4 mM
Nc1c(O)cccc1C(=O)O [3-hydroxyanthranilate],Km,PvPAT1 [4]; 3-HAA 0-0.5 mM,50 ± 5.3 µM

# From publication PMC10520873, “Biochemical investigation of the tryptophan biosynthetic enzyme anthranilate phosphoribosyltransferase in plants” (The Journal of Biological Chemistry, 2023)
